Measured values taken from patent US20120028897A1, “METHODS AND COMPOSITIONS FOR THE TREATMENT OF FLUID RETENTION DISORDERS” (priority 2008, published 2012).

What was measured:
[1] = system: anesthetized rats; experiment: Mean arterial blood pressure during and after iv peptide infusion; format: in vivo, rat
Experimental: (§1) Rats were not fasted prior to clearance experiments and ranged in weight from 250-340 g at the time of study. Anesthesia was induced with an intraperitoneal injection of pentobarbital sodium (55 mg/kg BW) and maintained at a surgical plane by intermittent intravenous supplementation. Core temperature was maintained at 37° C. by a servo-controlled, heated operating table. Animals breathed spontaneously through a PE240 cannula inserted into the trachea. A jugular vein was catheterized with PE50 cannula tubing for intravenous infusion of isotonic saline containing FITC-labeled inulin (0.4% W/V, Sigma, St Louis Mo.) and two PE10 cannulae, one for supplemental anesthetic and the other for peptide infusions (described below in the experimental protocol section). The ureters were exposed through a midline ventral incision and cannulated with PE10 tubing about one cm from each kidney. Urine was collected over 20 min periods and the volume estimated by weight. A femoral artery was cannulated with PE50 tubing for continuous measurement of arterial blood pressure and intermittent blood samples (50 μl), taken at the mid point of each urine collection.
(§2) Arterial blood pressure was measured with a pressure transducer connected to a cardiovascular analyzer (Model 50110, Stoelting Instruments Wood Dale, Ill.). Left renal blood flow was measured in some rats with a flow probe positioned on the left renal artery and connected to a blood flow monitor (model 1 PRB probe and model T420 monitor, Transonic Systems Inc. Ithaca N.Y.). Arterial pressure, heart rate, and renal blood flow were digitized with an A/D converter (Keithley instruments, Cleveland, Ohio Model KUSB 3100) for display and storage on a Windows-based personal computer using open layers data acquisition software (Dtx_Ez, Data Translation Inc, Marlboro, Mass.). Sodium and potassium concentrations in plasma and urine were measured by flame photometry (Model 943, Instrumentation Laboratory Co., Lexington Mass.). Glomerular filtration rate (GFR) was measured as the renal clearance rate of FITC-labeled inulin
(§3) After post-surgical equilibration (−60 min) and three 20 min control clearance periods, huUgnA or B was infused into the jugular vein at 10 μl/min over a 60 min period, followed by a return to isotonic saline for the remainder of the experiment. The infused doses of huUgnA were 12, 25, 50, 100, or 200 nmol/kg BW in a total of 38 rats; huUgnB doses were 9, 18, 35, 70, and 140 nmol/kg BW in 35 rats. A UgnA mimetic, E. coli STh (ST-core), was infused into a third group of 32 rats at doses of 17, 32, 66, 133, and 266 nmol/kg. Renal excretory responses to these infusions were slow to develop and long lasting, so clearance periods were continued for 2-3 hr after the termination of the peptide infusion. This protracted time course limited protocols to one dose of one peptide in each rat. A control group of 10 rats received isotonic saline at 10 μl/min in place of the peptide infusion, but was otherwise treated in the same way as the experimental groups.
Group comparisons were made with one way analysis of variance (ANOVA) using peptide doses as column variables. Columns were further divided into pre-infusion, infusion, and post infusion subgroups to facilitate post hoc testing with Bonferroni's method for selected multiple comparisons. Row variables were individual measurements from each clearance period for each rat. Responses were tested for statistical significance by comparing control values during the pre-infusion, infusion and post infusion collection periods with corresponding values obtained from peptide-infused rats. Each experimental group included 5 different doses of huUgnA, huUgnB, or ST-core. Thus, fifteen comparisons were required for each measured variable in each group.

[2] = system: anesthetized rats; experiment: Renal sodium excretion during and after iv peptide infusion in anesthetized rats; format: in vivo, rat
Experimental: as §1
All rats received a continuous intravenous infusion (10 μl/min/100 g BW) of isotonic saline containing FITC-labeled inulin for measurement of inulin clearance. Uncongugated FITC label and small inulin polymers were removed from the inulin solution by overnight dialysis against isotonic saline (SpectraPor 6 dialysis membrane, 1 kDa cutoff-limit, Spectrum Laboratories, Rancho Domingo, Calif.). Undissolved particulates were removed from the solution by filtration through a […] filter before each experiment (Steriflip, Millipore Inc. Billerica, Mass.). At least one hr was allowed for equilibration before the start of urine collections, at which point plasma inulin concentration had stabilized at an average value of 30±3 μg/ml.
as §2, §3
The effects of combined infusions of huUgnA and B were investigated in two groups of rats that received 35 nmol/kg of huUgnB together with either 25 nmol/kg (n=5) or 100 nmol/kg of huUgnA (n=5). […]

[3] = system: anesthetized rats; experiment: Renal blood flow (flow probe on left renal artery); format: in vivo, rat
Experimental: as §2, §3

[4] = target: cultured GC-C-expressing cells (Homo sapiens, UniProt P25092); settings: read-out: EC50, cGMP responses; cited from earlier work
[5] = huUgnA 25 nmol, Post-infuse, *** p<0.005 vs time control

cultured GC-C-expressing cells, sequence (P25092 24-1073): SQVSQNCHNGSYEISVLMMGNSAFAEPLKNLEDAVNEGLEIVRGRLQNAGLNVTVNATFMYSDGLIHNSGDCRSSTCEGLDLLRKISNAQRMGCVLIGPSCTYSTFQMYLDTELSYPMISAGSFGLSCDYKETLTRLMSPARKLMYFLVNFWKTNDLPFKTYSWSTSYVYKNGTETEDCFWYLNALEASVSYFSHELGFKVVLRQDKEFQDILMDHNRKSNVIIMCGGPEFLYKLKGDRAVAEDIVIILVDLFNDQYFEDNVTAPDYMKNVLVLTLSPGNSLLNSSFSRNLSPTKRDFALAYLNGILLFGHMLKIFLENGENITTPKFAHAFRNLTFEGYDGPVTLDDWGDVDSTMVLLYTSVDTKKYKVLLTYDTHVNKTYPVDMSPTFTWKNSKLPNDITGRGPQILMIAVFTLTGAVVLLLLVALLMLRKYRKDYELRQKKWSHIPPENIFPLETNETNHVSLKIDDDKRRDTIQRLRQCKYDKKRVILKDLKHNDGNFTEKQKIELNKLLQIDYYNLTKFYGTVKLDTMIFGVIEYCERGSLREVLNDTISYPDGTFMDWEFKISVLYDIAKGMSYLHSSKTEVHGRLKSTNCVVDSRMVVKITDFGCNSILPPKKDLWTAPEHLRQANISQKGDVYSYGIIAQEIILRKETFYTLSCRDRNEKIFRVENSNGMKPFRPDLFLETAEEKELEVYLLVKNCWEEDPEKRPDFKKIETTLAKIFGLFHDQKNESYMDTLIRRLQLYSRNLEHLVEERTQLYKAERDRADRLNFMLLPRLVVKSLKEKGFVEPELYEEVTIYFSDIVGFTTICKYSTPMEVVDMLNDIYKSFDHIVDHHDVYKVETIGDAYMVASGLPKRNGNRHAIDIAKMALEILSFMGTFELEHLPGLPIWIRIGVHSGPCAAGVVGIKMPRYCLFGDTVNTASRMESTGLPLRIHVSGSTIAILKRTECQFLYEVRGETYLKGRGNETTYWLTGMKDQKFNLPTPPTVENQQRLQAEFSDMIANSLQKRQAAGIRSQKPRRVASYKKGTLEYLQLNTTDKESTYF

SMILES: CC(C)C[C@H](NC(=O)[C@@H]1CSSC[C@@H]2NC(=O)[C@H](CC(C)C)NC(=O)[C@H](CCC(=O)O)NC(=O)[C@@H](NC(=O)[C@H](CC(=O)O)NC(=O)[C@H](CC(=O)O)NC(=O)[C@@H](N)CC(N)=O)CSSC[C@H](NC(=O)[C@H](C)NC(=O)[C@H](C(C)C)NC(=O)[C@H](CC(N)=O)NC(=O)[C@H](C(C)C)NC2=O)C(=O)N[C@@H]([C@@H](C)O)C(=O)NCC(=O)N1)C(=O)O (single isomer, unassigned) [huUgnA, Asn Asp Asp Cys Glu Leu Cys Val Asn Val Ala Cys Thr Gly Cys Leu, reference compound]
- BP (mean arterial blood pressure) ([1]; huUgnA 12 nmol, Infusion): 110 ± 4 mmHg
- BP (mean arterial blood pressure) ([1]; huUgnA 12 nmol, Post-infuse): 104 ± 3 mmHg
- BP (mean arterial blood pressure) ([1]; huUgnA 12 nmol, Pre-infuse): 121 ± 4 mmHg
- BP (mean arterial blood pressure) ([1]; huUgnA 25 nmol, Infusion): 111 ± 4 mmHg
- BP (mean arterial blood pressure) ([1]; huUgnA 25 nmol, Post-infuse): 105 ± 4 mmHg
- BP (mean arterial blood pressure) ([1]; huUgnA 25 nmol, Pre-infuse): 119 ± 3 mmHg
- BP (mean arterial blood pressure) ([1]; huUgnA 50 nmol, Infusion): 106 ± 3 mmHg
- BP (mean arterial blood pressure) ([1]; huUgnA 50 nmol, Post-infuse): 101 ± 3 mmHg
- BP (mean arterial blood pressure) ([1]; huUgnA 50 nmol, Pre-infuse): 117 ± 3 mmHg
- BP (mean arterial blood pressure) ([1]; huUgnA 100 nmol, Infusion): 115 ± 3 mmHg
- BP (mean arterial blood pressure) ([1]; huUgnA 100 nmol, Post-infuse): 109 ± 4 mmHg
- BP (mean arterial blood pressure) ([1]; huUgnA 100 nmol, Pre-infuse): 121 ± 4 mmHg
- BP (mean arterial blood pressure) ([1]; huUgnA 200 nmol, Infusion): 113 ± 5 mmHg
- BP (mean arterial blood pressure) ([1]; huUgnA 200 nmol, Post-infuse): 112 ± 4 mmHg
- BP (mean arterial blood pressure) ([1]; huUgnA 200 nmol, Pre-infuse): 121 ± 7 mmHg
- single effective dose, cumulative sodium excretion ([2]; FIG. 6B, lower or higher doses not different from control): 25 nmol/kg
- FENa (fractional sodium excretion) ([2]; huUgnA 12 nmol, Infuse): 0.10 ± 0.02 % of filtered
- UNaV (sodium excretion) ([2]; huUgnA 12 nmol, Infusion): 118.1 ± 25 nEq/min/g KW
- FENa (fractional sodium excretion) ([2]; huUgnA 12 nmol, Post-infuse): 0.17 ± 0.02 % of filtered
- UNaV (sodium excretion) ([2]; huUgnA 12 nmol, Post-infuse): 222 ± 33 nEq/min/g KW
- FENa (fractional sodium excretion) ([2]; huUgnA 12 nmol, Pre-infuse): 0.08 ± 0.02 % of filtered
- UNaV (sodium excretion) ([2]; huUgnA 12 nmol, Pre-infuse): 85 ± 20 nEq/min/g KW
- FENa (fractional sodium excretion) ([2]; huUgnA 25 nmol, Infuse, * p<0.05 vs time control): 0.27 ± 0.08* % of filtered
- UNaV (sodium excretion) ([2]; huUgnA 25 nmol, Infusion, * p<0.05 vs time control): 291.7 ± 77* nEq/min/g KW
- FENa (fractional sodium excretion) [2, 5]: 0.68 ± 0.08*** % of filtered
- UNaV (sodium excretion) [2, 5]: 664 ± 75*** nEq/min/g KW
- FENa (fractional sodium excretion) ([2]; huUgnA 25 nmol, Pre-infuse): 0.09 ± 0.01 % of filtered
- UNaV (sodium excretion) ([2]; huUgnA 25 nmol, Pre-infuse): 93 ± 7 nEq/min/g KW
- FENa (fractional sodium excretion) ([2]; huUgnA 50 nmol, Infuse): 0.10 ± 0.01 % of filtered
- UNaV (sodium excretion) ([2]; huUgnA 50 nmol, Infusion): 117.5 ± 22 nEq/min/g KW
- FENa (fractional sodium excretion) ([2]; huUgnA 50 nmol, Post-infuse): 0.28 ± 0.05 % of filtered
- UNaV (sodium excretion) ([2]; huUgnA 50 nmol, Post-infuse, * p<0.05 vs time control): 342 ± 63* nEq/min/g KW
- FENa (fractional sodium excretion) ([2]; huUgnA 50 nmol, Pre-infuse): 0.06 ± 0.01 % of filtered
- UNaV (sodium excretion) ([2]; huUgnA 50 nmol, Pre-infuse): 73 ± 10 nEq/min/g KW
- FENa (fractional sodium excretion) ([2]; huUgnA 100 nmol, Infuse): 0.12 ± 0.03 % of filtered
- UNaV (sodium excretion) ([2]; huUgnA 100 nmol, Infusion): 130.8 ± 32 nEq/min/g KW
- FENa (fractional sodium excretion) ([2]; huUgnA 100 nmol, Post-infuse): 0.27 ± 0.06 % of filtered
- UNaV (sodium excretion) ([2]; huUgnA 100 nmol, Post-infuse): 328 ± 80 nEq/min/g KW
- FENa (fractional sodium excretion) ([2]; huUgnA 100 nmol, Pre-infuse): 0.06 ± 0.01 % of filtered
- UNaV (sodium excretion) ([2]; huUgnA 100 nmol, Pre-infuse): 66 ± 9 nEq/min/g KW
- FENa (fractional sodium excretion) ([2]; huUgnA 200 nmol, Infuse): 0.11 ± 0.02 % of filtered
- UNaV (sodium excretion) ([2]; huUgnA 200 nmol, Infusion): 120.6 ± 18 nEq/min/g KW
- FENa (fractional sodium excretion) ([2]; huUgnA 200 nmol, Post-infuse): 0.29 ± 0.03 % of filtered
- UNaV (sodium excretion) ([2]; huUgnA 200 nmol, Post-infuse): 342 ± 51 nEq/min/g KW
- FENa (fractional sodium excretion) ([2]; huUgnA 200 nmol, Pre-infuse): 0.06 ± 0.01 % of filtered
- UNaV (sodium excretion) ([2]; huUgnA 200 nmol, Pre-infuse): 67 ± 1 nEq/min/g KW
- UNaV time course, ANOVA vs control ([2]; infusion period (p<0.05) and post infusion period (p<0.001)): significant increase
- shape of natriuretic dose-response relationship ([2]; rat, in vivo): bell-shaped
- Renal blood flow (RBF) ([3]; 25 nmol UgnA, before (first value of change), n=4): 2.7+0.3 ml/min/g KW
- Renal blood flow (RBF) ([3]; after 25 nmol UgnA, p<0.001, n=4): 3.2+0.1 ml/min/g KW
- EC50 [4]: ~100 nM
